Test results published in patent US20140212478A1, “METHOD FOR PREVENTING AND/OR TREATING PERIODONTAL DISEASE” (priority 2008, published 2014).
“Also recorded” adds a separate entry of the source.

System: dental root-periodontal tissue of excised first molar (lower jaw)
Test: Effect on dental root-periodontal tissue formation: honokiol-impregnated agarose bead embedded into dental pulp of excised mouse first molar, graft culture under kidney capsule of host mice
Format: in vivo, C57BL/6 mice
Text: Dulbecco' phosphate buffered saline (hereinbelow, it is some times referred to as “D-PBS”) was purchased from Dainippon Pharmaceuticals Inc. Affi-Gel agarose beads (Affigel heparin Cat. No.: 15306173) were purchased from Bio-Rad Laboratories, Inc. Five days age of C57BL/6 mice were purchased from Sankyo Labo Service Corporation. As host mice, 10 to 15 weeks age of C57BL/6 mice (female) were purchased from Sankyo Labo Service Corporation, and used two per group. Since it was know that a kidney and an anterior chamber of eye hardly have immune response among organs in adult mice, it was not necessary to especially use nude mice in graft culture.
Honokiol-impregnated agarose beads were prepared as follows. Honokiol was diluted to the concentration of 10 μM by using D-PBS. The agarose beads were washed with D-PBS.
After washing, four agarose beads were placed in the 1.5 mL tube and 100 μL of the honokiol solution was added into it. Then, the tube was incubated at room temperature for 45 minutes to impregnated honokiol into the agarose beads. As mentioned above, absorptive beads including heparin honokiol impregnation (hereinbelow, it is sometimes referred to as “honokiol-impregnated agarose beads”) were prepared.
Alternatively, another four agarose beads were placed in the 1.5 mL tube and 100 μL of D-PBS was added into it to prepare D-PBS-impregnated agarose beads were prepared, and they were used as negative control.
Five days age of […] mice, where their dental root-periodontal tissue was just before formed, were anesthetized and sacrificed by decapitation. After excised lower jaw of them, the first molars in the lower jaw were excised with dental follicles. One of the honokiol-impregnated agarose beads prepared in the (5-1) was embedded into the dental pulp of the excised teeth, the first molar in the lower jaw.
As the negative control, one of the D-PBS-impregnated agarose beads prepared was embedded into the dental pulp of another excised teeth, the first molar in the lower jaw.
The excised teeth under which the honokiol-impregnated agarose bead was embedded, and that under which the D-PBS impregnated agarose bead was embedded, were respectively grafted under capsule of kidney of the host mice. The host mice were bred under the condition of 12 hours lighting, at room temperature, 25° C., free taking feed and water for three weeks.
After three weeks from grafting of the excised tooth, the host mice were sacrificed by dislocation of cervical vertebrae to excise the kidney to recover the cultured excised tooth (grafted tooth).
Formation of dental root-periodontal tissue (extension), coat of the dental root, and bone of the grafted tooth, which was recovered, were observed under stereoscopic microscope, and then subjected to tomography by using micro CT. […]

honokiol
extension of dental root (dental root-periodontal tissue formation) (agarose bead impregnated with 10 μM honokiol in D-PBS, embedded into dental pulp, three weeks graft culture under kidney capsule, stereoscopic microscope and micro CT, compared to D-PBS negative control): prominent extension of dental root; also recorded: excellent promotion effect for dental root-periodontal tissue formation (extension)
bone formation around the newly formed dental root (agarose bead impregnated with 10 μM honokiol, embedded into dental pulp, three weeks graft culture under kidney capsule, all graft samples with dental root extension): bone formation around the newly formed dental root were also observed
periodontal ligament-like structure between the dental root and the bone formed (agarose bead impregnated with 10 μM honokiol, embedded into dental pulp, three weeks graft culture, soft X-ray / micro CT section): structure similar to periodontal ligamentous band was observed
promotion effect for surrounding tissue (periodontal ligament and alveolar bone), overall conclusion (pharmaceutical preparation comprising honokiol as the active ingredient, conclusion from graft culture results): promotion effect for surrounding tissue such as the periodontal ligament and alveolar bone
